Results taken from ChEMBL document CHEMBL1201862, “PubChem BioAssay data set” (2004).
Where “and” joins values, the source holds several entries; their conditions need not be identical. Equal entries are not always repeated.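 96-well plates; 48 h exposure; 5 concentrations. Endpoints by linear interpolation between flanking doses. Not reached: highest tested concentration assigned. Here, GI50 denotes the concentration required for 50% inhibition of growth.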 Calls of active or inactive are those of the source. Rule as the data show it: active = GI50 up to about 1.1 µM and inactive = higher.

Experiments:
Experiment in all cases: DTP human tumour cell line panel, 48 h
[1] = tested on: COLO 205
[2] = tested on: U-251
[3] = tested on: EKVX
[4] = tested on: HCC 2998
[5] = tested on: HCT-15
[6] = tested on: MCF7
[7] = tested on: IGROV-1
[8] = tested on: HL-60
[9] = tested on: CAKI-1
[10] = tested on: K562
[11] = tested on: SK-MEL-2
[12] = tested on: MDA-N
[13] = tested on: A549
[14] = tested on: NCI-H23
[15] = tested on: A498
[16] = tested on: ACHN
[17] = tested on: SNB-19
[18] = tested on: SK-MEL-5
[19] = tested on: MDA-MB-231
[20] = tested on: UACC-257
[21] = tested on: MDA-MB-435
[22] = tested on: HOP-62
[23] = tested on: HCT-116
[24] = tested on: OVCAR-8
[25] = tested on: PC-3
[26] = tested on: CCRF-CEM
[27] = tested on: NCI-H522
[28] = tested on: KM12
[29] = tested on: LOX IMVI
[30] = tested on: M14
[31] = tested on: SNB-75
[32] = tested on: T47D
[33] = tested on: RPMI-8226
[34] = tested on: HT-29
[35] = tested on: OVCAR-4
[36] = tested on: DU-145
[37] = tested on: UACC-62
[38] = tested on: SF-268
[39] = tested on: MOLT-4
[40] = tested on: SF-539
[41] = tested on: NCI-H226
[42] = tested on: 786-0
[43] = tested on: SN12C
[44] = tested on: UO-31
[45] = tested on: NCI/ADR-RES
[46] = tested on: OVCAR-5
[47] = tested on: RXF 393
[48] = tested on: TK-10
[49] = tested on: SR
[50] = tested on: HOP-92
[51] = tested on: SW-620
[52] = tested on: BT-549
[53] = tested on: NCI-H460
[54] = tested on: Malme-3M
[55] = tested on: Hs-578T
[56] = tested on: SK-MEL-28
[57] = tested on: OVCAR-3
[58] = tested on: SK-OV-3

CCN(CC)CCCNC(=O)c1cc(-c2nccn2C)nc2ccccc12
GI50 [1]: > 100 µM (inactive)
GI50 [2]: > 100 µM (inactive)
GI50 [3]: > 100 µM (inactive)
GI50 [4]: > 100 µM (inactive)
GI50 [5]: > 100 µM
GI50 [6]: > 100 µM (inactive)
GI50 [7]: > 100 µM (inactive)
GI50 [8]: > 100 µM (inactive)
GI50 [9]: > 100 µM (inactive)
GI50 [10]: > 100 µM (inactive)
GI50 [11]: > 100 µM (inactive)
GI50 [12]: > 100 µM (inactive)
GI50 [13]: > 100 µM (inactive)
GI50 [14]: > 100 µM (inactive)
GI50 [15]: > 100 µM (inactive)
GI50 [16]: > 100 µM (inactive)
GI50 [17]: > 100 µM (inactive)
GI50 [18]: > 100 µM (inactive)
GI50 [19]: > 100 µM (inactive)
GI50 [20]: > 100 µM (inactive)
GI50 [21]: > 100 µM (inactive)
GI50 [22]: > 100 µM (inactive)
GI50 [23]: > 100 µM (inactive)
GI50 [24]: > 100 µM (inactive)
GI50 [25]: > 100 µM (inactive)
GI50 [26]: > 100 µM (inactive)
GI50 [27]: > 100 µM (inactive)
GI50 [28]: > 100 µM (inactive)
GI50 [29]: > 100 µM (inactive)
GI50 [30]: > 100 µM (inactive)
GI50 [31]: 57.7 µM (inactive)
GI50 [32]: > 100 µM (inactive)
GI50 [33]: > 100 µM (inactive)
GI50 [34]: > 100 µM (inactive)
GI50 [35]: 61.2 µM (inactive)
GI50 [36]: > 100 µM (inactive)
GI50 [37]: > 100 µM (inactive)
GI50 [38]: > 100 µM (inactive)
GI50 [39]: > 100 µM (inactive)
GI50 [40]: > 100 µM (inactive)
GI50 [41]: > 100 µM (inactive)
GI50 [42]: > 100 µM (inactive)
GI50 [43]: > 100 µM (inactive)
GI50 [44]: 50.2 µM (inactive)
GI50 [45]: > 100 µM (inactive)
GI50 [46]: > 100 µM (inactive)
GI50 [47]: > 100 µM (inactive)
GI50 [48]: > 100 µM (inactive)
GI50 [49]: > 10 µM (inactive)
GI50 [50]: > 100 µM (inactive)
GI50 [51]: > 100 µM (inactive)
GI50 [52]: > 100 µM (inactive)
GI50 [53]: 59.7 µM (inactive)
GI50 [54]: > 100 µM (inactive)

COc1cc2c3c(c4cc(OC)c(OC)cc4c2cc1OC)CN1CCC[C@H]1C3 [(S)-TYLOPHORINE]
GI50 [55]: 0.404 µM (active)
GI50 [6]: 0.0107 µM (active)
GI50 [9]: < 16.3 nM (active) and 25.8 nM (active)
GI50 [13]: < 10 nM (active) and 13.2 nM (active)
GI50 [56]: < 13.7 nM (active) and 9.06 nM (active)
GI50 [15]: < 0.01 µM (active)
GI50 [16]: < 10 nM (active) and 14.5 nM (active)
GI50 [17]: < 10 nM (active) and 9.35 nM (active)
GI50 [19]: < 0.0109 µM (active)
GI50 [20]: 14.3 nM (active) and 26.6 nM (active)
GI50 [23]: < 10 nM (active) and 17.9 nM (active)
GI50 [27]: 56.6 nM (active) and < 40.6 nM (active)
GI50 [57]: 58.9 nM (active) and 42.3 nM (active)
GI50 [29]: < 10 nM (active) and 11.9 nM (active)
GI50 [41]: 0.0294 µM (active)
GI50 [58]: < 12.2 nM (active) and 12.6 nM (active)
GI50 [44]: 39.9 nM (active) and < 20.8 nM (active)
GI50 [46]: < 12.1 nM (active) and 16.6 nM (active)
GI50 [48]: < 16.7 nM (active) and 19.4 nM (active)
GI50 [52]: 22.5 nM (active) and 39.5 nM (active)
